ChEMBL document CHEMBL1201862, “PubChem BioAssay data set” (2004)
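Five compound concentrations were applied to cells in 96-well plates for 48 hours; endpoints were derived by simple linear interpolation of the resulting dose-response curve. GI50 marks 50% less growth.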 Calls of active or inactive are those of the source. Rule as the data show it: active = GI50 up to about 1.1 µM and inactive = higher.

Key:
Experiment in all cases: NCI tumour cell line growth inhibition, 48 h
A549 = system: A549
EKVX = system: EKVX
HCT-116 = system: HCT-116
HL-60 = system: HL-60
HT-29 = system: HT-29
LOX IMVI = system: LOX IMVI
M14 = system: M14
NCI-H23 = system: NCI-H23
NCI-H460 = system: NCI-H460
SK-MEL-2 = system: SK-MEL-2
SW-620 = system: SW-620
U-251 = system: U-251
UACC-62 = system: UACC-62
UO-31 = system: UO-31
NCI-H226 = system: NCI-H226
SF-268 = system: SF-268
SNB-75 = system: SNB-75

Row | Structure (SMILES) | GI50 (A549) | GI50 (EKVX) | GI50 (HCT-116) | GI50 (HL-60) | GI50 (HT-29) | GI50 (LOX IMVI) | GI50 (M14) | GI50 (NCI-H23) | GI50 (NCI-H460) | GI50 (SK-MEL-2) | GI50 (SW-620) | GI50 (U-251) | GI50 (UACC-62) | GI50 (UO-31) | GI50 (NCI-H226) | GI50 (SF-268) | GI50 (SNB-75)
1 | CN1N=C(Nc2ccccc2)Sc2c1cnn(-c1ccccc1)c2=O | > 100 µM (inactive) | > 100 µM (inactive) | > 100 µM (inactive) | 85.7 µM (inactive) | > 100 µM (inactive) | 87.3 µM (inactive) | > 100 µM (inactive) | 66.1 µM (inactive) | > 100 µM (inactive) | > 100 µM (inactive) | > 100 µM (inactive) | > 100 µM (inactive) | 40 µM (inactive) | 83.2 µM (inactive) | – | – | –
2 | Cc1ccc(C)c(NC(=O)CC2SC(Nc3ccccc3Cl)=NC2=O)c1 (configuration not stated) | 65.3 µM (inactive) | > 100 µM (inactive) | > 100 µM (inactive) | 32.3 µM (inactive) | > 100 µM (inactive) | – | > 100 µM (inactive) | 43 µM (inactive) | > 100 µM (inactive) | > 100 µM (inactive) | > 100 µM (inactive) | > 100 µM (inactive) | 49.3 µM (inactive) | 75.9 µM (inactive) | > 100 µM (inactive) | > 100 µM (inactive) | 55.7 µM (inactive)
3 | CCOC(=O)Cc1nc2ccc3c(c2nc1O)C(=O)c1ccccc1C3=O | 34.4 µM (inactive) | 3.61 µM (inactive) | 31.5 µM (inactive) | – | > 100 µM (inactive) | 25.5 µM (inactive) | 77.3 µM (inactive) | 40.2 µM (inactive) | 35.4 µM (inactive) | 76.4 µM (inactive) | 56 µM (inactive) | 48.4 µM (inactive) | 34.5 µM (inactive) | 35.4 µM (inactive) | 80.7 µM (inactive) | 38.5 µM (inactive) | 62.7 µM (inactive)
4 | CCc1cc2c(Nc3ccccc3)c3c(nc2s1)CCCC3 | 8.53 µM (inactive) | > 100 µM (inactive) | 9.35 µM (inactive) | 6.05 µM (inactive) | – | 11.4 µM (inactive) | > 100 µM (inactive) | – | > 100 µM (inactive) | > 100 µM (inactive) | 80.5 µM (inactive) | 22 µM (inactive) | 15.3 µM (inactive) | 3.99 µM (inactive) | – | 76.6 µM (inactive) | 7.46 µM (inactive)
5 | COc1cc(C2[C@H]3C(=O)N(c4ccc(Cc5ccc(N6C(=O)[C@@H]7ON(c8ccccc8)C(c8cc(OC)c(OC)c(OC)c8)[C@@H]7C6=O)cc5)cc4)C(=O)[C@H]3ON2c2ccccc2)cc(OC)c1OC (some centres not stated) | > 100 µM (inactive) | > 100 µM (inactive) | > 100 µM (inactive) | > 100 µM (inactive) | > 100 µM (inactive) | > 100 µM (inactive) | 17 µM (inactive) | > 100 µM (inactive) | > 100 µM (inactive) | > 100 µM (inactive) | > 100 µM (inactive) | > 100 µM (inactive) | 95.3 µM (inactive) | > 100 µM (inactive) | > 100 µM (inactive) | > 100 µM (inactive) | > 100 µM (inactive)
6 | CCCC1=C(CC)C(C(=O)Nc2c(C)cccc2C)=NC(S)N1 (configuration not stated) | > 100 µM (inactive) | > 100 µM (inactive) | > 100 µM (inactive) | > 100 µM (inactive) | > 100 µM (inactive) | – | > 100 µM (inactive) | > 100 µM (inactive) | > 100 µM (inactive) | > 100 µM (inactive) | > 100 µM (inactive) | > 100 µM (inactive) | > 100 µM (inactive) | > 100 µM (inactive) | > 100 µM (inactive) | > 100 µM (inactive) | 59 µM (inactive)
7 | COc1cccc([C@@]2(O)c3c(ccc(O)c3OC)[C@H]2OC)c1OC | 37 µM (inactive) | 47.2 µM (inactive) | – | 19.3 µM (inactive) | 28.1 µM (inactive) | – | 30.5 µM (inactive) | 43.9 µM (inactive) | 47.4 µM (inactive) | 37.8 µM (inactive) | 28.6 µM (inactive) | 51.4 µM (inactive) | > 10 µM (inactive) | 36.4 µM (inactive) | 43.5 µM (inactive) | 33.8 µM (inactive) | 47.6 µM (inactive)
8 | O=C(N/N=C/c1ccccc1O)c1cccc([N+](=O)[O-])c1 | 31 µM (inactive) | 21.1 µM (inactive) | 22.5 µM (inactive) | 3.01 µM (inactive) | 5.93 µM (inactive) | 18.4 µM (inactive) | 14.7 µM (inactive) | 16.5 µM (inactive) | 4.68 µM (inactive) | 21.8 µM (inactive) | 4.54 µM (inactive) | 26.2 µM (inactive) | 20.7 µM (inactive) | 7.82 µM (inactive) | – | 15.7 µM (inactive) | –
9 | Cc1ccccc1C(=O)Oc1ccc(Oc2ccccc2)cc1 | > 100 µM (inactive) | 73.5 µM (inactive) | > 100 µM (inactive) | 18.2 µM (inactive) | > 100 µM (inactive) | – | > 100 µM (inactive) | > 100 µM (inactive) | 39.2 µM (inactive) | > 100 µM (inactive) | 73.6 µM (inactive) | > 100 µM (inactive) | > 100 µM (inactive) | 20.3 µM (inactive) | > 100 µM (inactive) | > 100 µM (inactive) | > 100 µM (inactive)
10 | CCCCCCCCCCCCCCCCCc1nnc(N)o1 | > 100 µM (inactive) | – | > 100 µM (inactive) | > 100 µM (inactive) | > 100 µM (inactive) | > 100 µM (inactive) | > 100 µM (inactive) | 47.4 µM (inactive) | > 100 µM (inactive) | > 100 µM (inactive) | > 100 µM (inactive) | > 100 µM (inactive) | > 100 µM (inactive) | > 100 µM (inactive) | > 100 µM (inactive) | > 100 µM (inactive) | > 100 µM (inactive)
11 | Cc1ccc(Oc2ccc([N+](=O)[O-])cc2[N+](=O)[O-])c(C)c1 | 34.1 µM (inactive) | 88.7 µM (inactive) | 30.3 µM (inactive) | 22.9 µM (inactive) | 25.6 µM (inactive) | – | 48.6 µM (inactive) | 28.7 µM (inactive) | 37.3 µM (inactive) | 56.9 µM (inactive) | 47.1 µM (inactive) | 34.8 µM (inactive) | 45 µM (inactive) | 40.5 µM (inactive) | 44.9 µM (inactive) | – | 37.5 µM (inactive)
12 | COc1ccc(C2N3CCCCC3[C@@H]3c4[nH]c5ccccc5c4CCN23)c(OC)c1 (some centres not stated) | 40.8 µM (inactive) | > 100 µM (inactive) | 21.1 µM (inactive) | 18.2 µM (inactive) | 15.8 µM (inactive) | – | 16.8 µM (inactive) | 22.6 µM (inactive) | 22 µM (inactive) | 14.6 µM (inactive) | 33.7 µM (inactive) | 28.4 µM (inactive) | 16.3 µM (inactive) | 23.5 µM (inactive) | – | 21.1 µM (inactive) | –
13 | CN(C)CC1CCCCCCCCCCCCC(CN(C)C)C1=O (configuration not stated) | 15.5 µM (inactive) | 22.6 µM (inactive) | 4.54 µM (inactive) | – | 5.66 µM (inactive) | 8.43 µM (inactive) | 13.2 µM (inactive) | 17.7 µM (inactive) | 13.7 µM (inactive) | 12.4 µM (inactive) | 7.64 µM (inactive) | 14.3 µM (inactive) | 13.3 µM (inactive) | 13.7 µM (inactive) | 11 µM (inactive) | 12.7 µM (inactive) | 11.9 µM (inactive)
14 | CSc1nc(NC2OCC(OC(C)=O)C(OC(C)=O)C2OC(C)=O)c(/N=C(\C)C(C)=O)c(=O)n1C (configuration not stated) | > 100 µM (inactive) | > 100 µM (inactive) | > 100 µM (inactive) | > 100 µM (inactive) | > 100 µM (inactive) | > 100 µM (inactive) | > 100 µM (inactive) | > 100 µM (inactive) | > 100 µM (inactive) | > 100 µM (inactive) | > 100 µM (inactive) | > 100 µM (inactive) | > 100 µM (inactive) | > 100 µM (inactive) | > 100 µM (inactive) | – | > 100 µM (inactive)
15 | COC(=O)C12CC3CC(C1)CC(C(=O)OC)(C3)C2 | > 100 µM (inactive) | > 100 µM (inactive) | > 100 µM (inactive) | 55.8 µM (inactive) | > 100 µM (inactive) | > 100 µM (inactive) | > 100 µM (inactive) | > 100 µM (inactive) | > 100 µM (inactive) | – | > 100 µM (inactive) | > 100 µM (inactive) | > 100 µM (inactive) | > 100 µM (inactive) | – | > 100 µM (inactive) | > 100 µM (inactive)
16 | O=C1OC(c2ccccc2)=N/C1=C\c1cc(Cl)ccc1Cl | > 100 µM (inactive) | > 100 µM (inactive) | 10.3 µM (inactive) | 6.64 µM (inactive) | > 100 µM (inactive) | – | 32.6 µM (inactive) | > 100 µM (inactive) | > 100 µM (inactive) | > 100 µM (inactive) | 34.9 µM (inactive) | 70.8 µM (inactive) | > 100 µM (inactive) | > 100 µM (inactive) | – | 66.2 µM (inactive) | 3.48 µM (inactive)
17 | CSc1ccc2c(cc1=O)C(NC(=O)c1ccc(C#N)cc1)CCc1cc(O)c(O)c(O)c1-2 (configuration not stated) | 44.4 µM (inactive) | 22.4 µM (inactive) | 18.4 µM (inactive) | 20.1 µM (inactive) | 29 µM (inactive) | – | 30 µM (inactive) | 27.6 µM (inactive) | 27.6 µM (inactive) | – | 19.5 µM (inactive) | 19.5 µM (inactive) | 19.3 µM (inactive) | 75.9 µM (inactive) | 26.2 µM (inactive) | 43.4 µM (inactive) | 4.2 µM (inactive)
18 | Cc1c2ccncc2c(C)c2c1[nH]c1ccc(OC(C)C)cc12 | 1.52 µM (inactive) | 1.4 µM (inactive) | 0.736 µM (active) | 1.84 µM (inactive) | 1.32 µM (inactive) | 1.18 µM (inactive) | 1.6 µM (inactive) | 1.53 µM (inactive) | 1.03 µM (active) | 1.58 µM (inactive) | 0.547 µM (active) | 1.38 µM (inactive) | – | 1.53 µM (inactive) | 1.63 µM (inactive) | 1.43 µM (inactive) | 1.83 µM (inactive)
